Reference: ChEMBL document CHEMBL5055627 (J Med Chem, 2021)

What was measured:
[1] = Inhibition of Mycobacterium tuberculosis 20S proteasome open gate mutant expressed in Escherichia coli BL21(DE3) using Suc-LLVY-AMC as substrate measured over 1.5 to 2 hrs by plate reader assay
[2] = system: human 20S immunoproteasome subunit beta-5i (versus Mycobacterium tuberculosis 20S open gate mutant); assay: Selectivity index, ratio of IC50 for human 20S immunoproteasome subunit beta-5i to IC50 for Mycobacterium tuberculosis 20S open gate mutant; type: toxicity; conditions: read-out: Ratio IC50
[3] = system: human 20S constitutive proteasome subunit beta-5c (versus Mycobacterium tuberculosis 20S open gate mutant); assay: Selectivity index, ratio of IC50 for human 20S constitutive proteasome subunit beta-5c to IC50 for Mycobacterium tuberculosis 20S open gate mutant; type: toxicity; conditions: read-out: Ratio IC50

| SMILES | IC50 [1] [nM] | selectivity ratio [2] | selectivity ratio [3] |
| --- | --- | --- | --- |
| O=C1CCCCCCCCC[C@@H](C(=O)NCc2cccc3ccccc23)NC(=O)[C@H](CC(=O)N2CCCC2)N1 | 710 | – | – |
| Cc1ccc(CNC(=O)[C@@H]2Cc3cccc(c3)Oc3cccc(c3)C[C@H](N)C(=O)N[C@@H](CCc3ccccc3)C(=O)N2)cc1 | > 100000 | – | – |
| O=C1CCc2cccc(c2)OCCCC[C@@H](C(=O)NCc2ccccc2F)NC(=O)[C@H](CC(=O)N2CCC[C@@H]2c2ccccc2)N1 | 7 | > 14000 | > 14000 |
| O=C1CCc2cccc(c2)Oc2ccc(cc2)C[C@@H](C(=O)NCc2ccccc2F)NC(=O)[C@H](CC(=O)N2CCC[C@@H]2c2ccccc2)N1 | 7.4 | > 13600 | > 13600 |
| O=C1CCCCCCCCOC[C@@H](C(=O)NCc2cccc3ccccc23)NC(=O)[C@H](CC(=O)N2CCCC2)N1 | 100 | – | – |
| CCN(CC)C(=O)C[C@H](NC(=O)CCc1ccccc1)C(=O)N[C@@H](Cc1ccc(F)cc1)C(=O)NCc1cccc2ccccc12 | 15 | 3650 | 4670 |
| O=C1CCCCCCCCCC[C@@H](C(=O)NCc2cccc3ccccc23)NC(=O)[C@H](CC(=O)N2CCCC2)N1 | 150 | – | – |
| O=C1CCc2cccc(c2)OCCCC[C@@H](C(=O)NCc2ccccc2F)NC(=O)[C@H](CCN2CCC[C@@H]2c2ccccc2)N1 | 1500 | 31 | 57 |
| O=C1CCc2cccc(c2)OCCCC[C@@H](C(=O)NCc2ccccc2F)NC(=O)[C@H](CC(=O)N2CCC[C@@H]2C2CC2)N1 | 7 | 11 | 11 |
| O=C1CCc2cccc(c2)OCCCC[C@@H](C(=O)NCc2ccccc2F)NC(=O)[C@H](CC(=O)N2CCC[C@H]2C2CC2)N1 | 79 | 11 | 19 |
| O=C(N[C@H]1Cc2cccc(c2)Oc2ccc(cc2)C[C@@H](C(=O)NCc2ccccc2F)NC(=O)[C@H](CC(=O)N2CCC[C@@H]2c2ccccc2)NC1=O)c1ccccc1 | 840 | > 119 | > 119 |
| CC(=O)N[C@H]1Cc2cccc(c2)Oc2ccc(cc2)C[C@@H](C(=O)NCc2ccccc2F)NC(=O)[C@H](CC(=O)N2CCC[C@@H]2c2ccccc2)NC1=O | 170 | > 594 | > 594 |
| O=C1N[C@@H](CC(=O)N2CCCC2)C(=O)N[C@H](C(=O)NCc2cccc3ccccc23)CCCCCCCCCC1Cc1ccccc1 (some centres undefined) | 5000 | – | – |
| O=C1CCc2cccc(c2)Oc2ccc(cc2)C[C@@H](C(=O)NCc2ccccc2F)NC(=O)[C@H](CC(=O)N2CCCC2)N1 | 200 | 108 | – |
| O=C1CCCCCCCCOC[C@@H](C(=O)NCc2ccccc2F)NC(=O)[C@H](CC(=O)N2CCC[C@@H]2c2ccccc2)N1 | 7 | > 14000 | > 14000 |
